Reference: PubChem BioAssay AID2060894 (Molecular Pharmacology Branch, DTP, NCI, 2025)

Tested on: K12877-001-R-J1-PDC complex spheroid viability
Experiment: Anticancer human tumor K12877-001-R-J1-PDC patient-derived lung adenocarcinoma cell line growth inhibition [RAS]
Conditions: for IC50: curve of first compound; for viability, T/C: stronger effect = lower value
Outline: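 Agents were tested in combination matrices in half-log decrements from a top concentration at or near clinical Cmax (10 microM if undetermined). Targets were multi-cell spheroids of tumour lines plus HUVEC and MSC stromal cells.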

[1] = second compound 0.000949 µM, first compound 0.0316 µM
[2] = second compound 0.000949 µM, first compound 0.1 µM
[3] = second compound 0.000949 µM, first compound 0.316 µM
[4] = second compound 0.000949 µM, first compound 1 µM
[5] = second compound 0.000949 µM, first compound 3.16 µM
[6] = second compound 0.000949 µM, first compound 10 µM
[7] = second compound 0.003 µM, first compound 0.0316 µM
[8] = second compound 0.003 µM, first compound 0.1 µM
[9] = second compound 0.003 µM, first compound 0.316 µM
[10] = second compound 0.003 µM, first compound 1 µM
[11] = second compound 0.003 µM, first compound 3.16 µM
[12] = second compound 0.003 µM, first compound 10 µM
[13] = second compound 0.00949 µM, first compound 0.0316 µM
[14] = second compound 0.00949 µM, first compound 0.1 µM
[15] = second compound 0.00949 µM, first compound 0.316 µM
[16] = second compound 0.00949 µM, first compound 1 µM
[17] = second compound 0.00949 µM, first compound 3.16 µM
[18] = second compound 0.00949 µM, first compound 10 µM
[19] = second compound 0.03 µM, first compound 0.0316 µM
[20] = second compound 0.03 µM, first compound 0.1 µM
[21] = second compound 0.03 µM, first compound 0.316 µM
[22] = second compound 0.03 µM, first compound 1 µM
[23] = second compound 0.03 µM, first compound 3.16 µM
[24] = second compound 0.03 µM, first compound 10 µM
[25] = second compound 0.0949 µM, first compound 0.0316 µM
[26] = second compound 0.0949 µM, first compound 0.1 µM
[27] = second compound 0.0949 µM, first compound 0.316 µM
[28] = second compound 0.0949 µM, first compound 1 µM
[29] = second compound 0.0949 µM, first compound 3.16 µM
[30] = second compound 0.0949 µM, first compound 10 µM
[31] = second compound 0.3 µM, first compound 0.0316 µM
[32] = second compound 0.3 µM, first compound 0.1 µM
[33] = second compound 0.3 µM, first compound 0.316 µM
[34] = second compound 0.3 µM, first compound 1 µM
[35] = second compound 0.3 µM, first compound 3.16 µM
[36] = second compound 0.3 µM, first compound 10 µM
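Note: spheroids exposed to agents for one week before readout.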
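Throughout, for viability, T/C: tumour cells co-cultured with HUVEC and mesenchymal stem cells in spheroids.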

Cc1nc(N2CCC3(CC2)COC(C)C3N)c(CO)nc1Sc1ccnc(N)c1Cl (stereo unspecified) + CCn1c(-c2cccnc2C(C)OC)c2c3cc(ccc31)N1CCOC(CC(NC(=O)C(C(C)C)N(C)C(=O)C3(F)CCN(C(=O)C#CC(C)(C)N(C)C)CC3)C(=O)N3CCCC(N3)C(=O)OCC(C)(C)C2)C1
IC50 (second compound 0.000949 µM): 6230 nM
IC50 (second compound 0.003 µM): 1850 nM
IC50 (second compound 0.00949 µM): 2630 nM
IC50 (second compound 0.03 µM): 875 nM
IC50 (second compound 0.0949 µM): 1200 nM
IC50 (second compound 0.3 µM): 424 nM
viability, T/C [1]: 83.6%
viability, T/C [2]: 71.1%
viability, T/C [3]: 71.5%
viability, T/C [4]: 62.5%
viability, T/C [5]: 52.8%
viability, T/C [6]: 47.3%
viability, T/C [7]: 73.6%
viability, T/C [8]: 66.2%
viability, T/C [9]: 69.8%
viability, T/C [10]: 55.6%
viability, T/C [11]: 45.6%
viability, T/C [12]: 44%
viability, T/C [13]: 76.4%
viability, T/C [14]: 76%
viability, T/C [15]: 57.8%
viability, T/C [16]: 57.4%
viability, T/C [17]: 50.2%
viability, T/C [18]: 42.1%
viability, T/C [19]: 83.2%
viability, T/C [20]: 73.5%
viability, T/C [21]: 59.2%
viability, T/C [22]: 49.4%
viability, T/C [23]: 40.7%
viability, T/C [24]: 36.5%
viability, T/C [25]: 72.6%
viability, T/C [26]: 70.8%
viability, T/C [27]: 58.3%
viability, T/C [28]: 48.5%
viability, T/C [29]: 46.4%
viability, T/C [30]: 33.8%
viability, T/C [31]: 57.1%
viability, T/C [32]: 67.9%
viability, T/C [33]: 53.3%
viability, T/C [34]: 38.3%
viability, T/C [35]: 37.5%
viability, T/C [36]: 31.2%

NC1c2ccccc2OC12CCN(c1cnc3c(N4CCCc5ncccc54)n[nH]c3n1)CC2 (stereo unspecified) + CCn1c(-c2cccnc2C(C)OC)c2c3cc(ccc31)N1CCOC(CC(NC(=O)C(C(C)C)N(C)C(=O)C3(F)CCN(C(=O)C#CC(C)(C)N(C)C)CC3)C(=O)N3CCCC(N3)C(=O)OCC(C)(C)C2)C1
IC50 (second compound 0.000949 µM): 580 nM
IC50 (second compound 0.003 µM): 509 nM
IC50 (second compound 0.00949 µM): 225 nM
IC50 (second compound 0.03 µM): 145 nM
IC50 (second compound 0.0949 µM): 136 nM
IC50 (second compound 0.3 µM): 67.7 nM
viability, T/C [1]: 69%
viability, T/C [2]: 67.8%
viability, T/C [3]: 56%
viability, T/C [4]: 43.8%
viability, T/C [5]: 38.5%
viability, T/C [6]: 34%
viability, T/C [7]: 65.8%
viability, T/C [8]: 62.2%
viability, T/C [9]: 52.5%
viability, T/C [10]: 45.4%
viability, T/C [11]: 37%
viability, T/C [12]: 30%
viability, T/C [13]: 76.9%
viability, T/C [14]: 54.1%
viability, T/C [15]: 49.5%
viability, T/C [16]: 38.5%
viability, T/C [17]: 37.6%
viability, T/C [18]: 28.9%
viability, T/C [19]: 65.9%
viability, T/C [20]: 50.9%
viability, T/C [21]: 44.9%
viability, T/C [22]: 39.3%
viability, T/C [23]: 34.5%
viability, T/C [24]: 30.8%
viability, T/C [25]: 62.4%
viability, T/C [26]: 52.1%
viability, T/C [27]: 41.8%
viability, T/C [28]: 38.3%
viability, T/C [29]: 39.1%
viability, T/C [30]: 27.4%
viability, T/C [31]: 58.3%
viability, T/C [32]: 46.9%
viability, T/C [33]: 35%
viability, T/C [34]: 29.1%
viability, T/C [35]: 29.8%
viability, T/C [36]: 22.8%

Nc1ccn(C2OC(CO)C(O)C2(F)F)c(=O)n1 (stereo unspecified) + CCn1c(-c2cccnc2C(C)OC)c2c3cc(ccc31)N1CCOC(CC(NC(=O)C(C(C)C)N(C)C(=O)C3(F)CCN(C(=O)C#CC(C)(C)N(C)C)CC3)C(=O)N3CCCC(N3)C(=O)OCC(C)(C)C2)C1
IC50 (second compound 0.000949 µM): 14.5 nM
IC50 (second compound 0.003 µM): 13.2 nM
IC50 (second compound 0.00949 µM): 12.7 nM
IC50 (second compound 0.03 µM): 12.4 nM
IC50 (second compound 0.0949 µM): 10.5 nM
IC50 (second compound 0.3 µM): 5.89 nM
viability, T/C (second compound 0.000949 µM, first compound 0.00316 µM): 83.5%
viability, T/C (second compound 0.000949 µM, first compound 0.01 µM): 71.9%
viability, T/C [1]: 4.44%
viability, T/C [2]: 3.87%
viability, T/C [3]: 3.37%
viability, T/C [4]: 4.46%
viability, T/C (second compound 0.003 µM, first compound 0.00316 µM): 82.3%
viability, T/C (second compound 0.003 µM, first compound 0.01 µM): 64.6%
viability, T/C [7]: 4.22%
viability, T/C [8]: 3.94%
viability, T/C [9]: 5.22%
viability, T/C [10]: 3.83%
viability, T/C (second compound 0.00949 µM, first compound 0.00316 µM): 79.7%
viability, T/C (second compound 0.00949 µM, first compound 0.01 µM): 61.6%
viability, T/C [13]: 5.4%
viability, T/C [14]: 4.58%
viability, T/C [15]: 3.59%
viability, T/C [16]: 3.51%
viability, T/C (second compound 0.03 µM, first compound 0.00316 µM): 82.2%
viability, T/C (second compound 0.03 µM, first compound 0.01 µM): 60.4%
viability, T/C [19]: 3.17%
viability, T/C [20]: 4.94%
viability, T/C [21]: 4.16%
viability, T/C [22]: 3.02%
viability, T/C (second compound 0.0949 µM, first compound 0.00316 µM): 77.2%
viability, T/C (second compound 0.0949 µM, first compound 0.01 µM): 52%
viability, T/C [25]: 5.2%
viability, T/C [26]: 3.34%
viability, T/C [27]: 2.8%
viability, T/C [28]: 3.38%
viability, T/C (second compound 0.3 µM, first compound 0.00316 µM): 71.6%
viability, T/C (second compound 0.3 µM, first compound 0.01 µM): 31.5%
viability, T/C [31]: 3.46%
viability, T/C [32]: 2.66%
viability, T/C [33]: 3.3%
viability, T/C [34]: 3.43%
